# Assay results published in article PMC5681660, “Reduced hepatitis B and D viral entry using clinically applied drugs as novel inhibitors of the bile acid transporter NTCP” (Scientific Reports, 2017).
# Counter-ions that a name gives are not always drawn.
# Target: T1, human NTCP (Homo sapiens, UniProt Q14973)
# T1 sequence (Q14973 1-349): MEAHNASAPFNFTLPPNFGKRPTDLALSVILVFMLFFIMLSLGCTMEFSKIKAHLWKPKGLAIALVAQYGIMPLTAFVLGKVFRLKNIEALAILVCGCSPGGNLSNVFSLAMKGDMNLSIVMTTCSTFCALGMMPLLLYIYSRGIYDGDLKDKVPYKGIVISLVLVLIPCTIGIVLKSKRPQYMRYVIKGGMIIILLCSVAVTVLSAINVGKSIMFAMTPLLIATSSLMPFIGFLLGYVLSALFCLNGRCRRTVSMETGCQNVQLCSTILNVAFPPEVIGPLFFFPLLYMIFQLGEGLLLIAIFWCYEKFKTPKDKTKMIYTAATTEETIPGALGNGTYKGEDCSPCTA
# Experiment: Screening taurocholate uptake assay (96-well, [14C]taurocholate, 10 µM drug)
# Details: for B-score functional assay: screening taurocholate uptake, 10 µM drug
# [1] = ranking over the functional and the binding screening assay
# [2] = combined ranking of functional and binding screening assays
SMILES,Ranking score [1],B-score functional assay,Ranking score [2]
CCCc1nc2c(C)cc(-c3nc4ccccc4n3C)cc2n1Cc1ccc(-c2ccccc2C(=O)O)cc1 [Telmisartan],165.804,-4.106,
CN1C(C(=O)Nc2ccccn2)=C(O)c2sccc2S1(=O)=O [Tenoxicam],,0.141,641.502
COc1cc2nc(N3CCN(C(=O)C4CCCO4)CC3)nc(N)c2cc1OC (stereo not drawn) [Terazosin hydrochloride],,-0.092,497.689
CC(C)N1CCN(c2ccc(OCC3COC(Cn4cncn4)(c4ccc(Cl)cc4Cl)O3)cc2)CC1 (stereo not drawn) [Terconazole],,-0.057,502.144
"O.O=C1C(O)=C(O)C(=O)C(O)=C1O [Tetrahydroxy-1,4-quinone hydrate]",,-0.017,603.838
c1ccc(C2CN3CCSC3=N2)cc1 (stereo not drawn) [Tetramisole hydrochloride],250.531,-2.419,
Cn1cnc2c1c(=O)[nH]c(=O)n2C [Theobromine],,-0.75,527.693
CS(=O)(=O)c1ccc([C@@H](O)[C@@H](CO)NC(=O)C(Cl)Cl)cc1 [Thiamphenicol],,-0.089,545.996
COc1c(O[C@@H]2O[C@H](CO)[C@@H](O)[C@H](O)[C@H]2O)cc2c(c1OC)-c1ccc(SC)c(=O)cc1[C@@H](NC(C)=O)CC2 [Thiocolchicoside],64.2729,-3.578,
C=C(NC(=O)C(=C)NC(=O)c1csc(C2=N[C@@H]3c4csc(n4)[C@H]4NC(=O)c5csc(n5)[C@H]([C@](C)(O)[C@@H](C)O)NC(=O)[C@H]5CSC(=N5)/C(=C/C)NC(=O)[C@H]([C@@H](C)O)NC(=O)c5csc(n5)[C@]3(CC2)NC(=O)[C@H](C)NC(=O)C(=C)NC(=O)[C@H](C)NC(=O)[C@H]([C@@H](C)CC)N[C@@H]2C=Cc3c([C@H](C)O)cc(nc3[C@H]2O)C(=O)O[C@@H]4C)n1)C(N)=O [Thiostrepton],23.8747,-0.068,

# Next, values leading:
Ranking score [1],B-score functional assay,Ranking score [2],SMILES
203.814,0.02,,CSc1ccc2c(c1)N(CCC1CCCCN1C)c1ccccc1S2 (stereo not drawn) [Thioridazine hydrochloride]
50.5173,-2.235,,CCCCCCCCCCCCCCCC[N+](C)(C)CCN(Cc1ccc(OC)cc1)c1ncccn1 [Thonzonium bromide]
110.132,-0.726,,CC1(C)S[C@@H]2[C@H](NC(=O)[C@H](C(=O)O)c3ccsc3)C(=O)N2[C@H]1C(=O)O [Ticarcillin sodium]
,-0.469,478.029,CCS(=O)(=O)CCn1c([N+](=O)[O-])cnc1C [Tinidazole]
,-0.213,498.515,NC[C@H]1O[C@H](O[C@H]2[C@H](O)[C@@H](O[C@H]3O[C@H](CO)[C@@H](O)[C@H](N)[C@H]3O)[C@H](N)C[C@@H]2N)[C@H](N)C[C@@H]1O [Tobramycin]
269.251,-1.372,,CCOC(=O)NNc1nncc2ccccc12 [Todralazine hydrochloride]
,-0.681,601.655,Cc1ccc(S(=O)(=O)NC(=O)NN2CCCCCC2)cc1 [Tolazamide]
,6.72,550.781,Cc1cccc(N(C)C(=S)Oc2ccc3ccccc3c2)c1 [Tolnaftate]
,3.106,493.908,CNCC[C@@H](Oc1ccccc1C)c1ccccc1 [Tomoxetine hydrochloride]
,0.057,537.181,CN(C)CCOc1ccc(/C(=C(/CCCl)c2ccccc2)c2ccccc2)cc1 [Toremifene]
,-1.122,467.226,Cc1cccc(Nc2ccncc2S(=O)(=O)NC(=O)NC(C)C)c1 [Torsemide]
